Read-outs that look alike come from different tables or passages of the source.
How the values were obtained:
COX-2 = target: T1, COX-2 (Homo sapiens, UniProt P35354); experiment: Cell-free COXs activity assay, COX-2; format: biochemical; settings: percentage of uninhibited control (100%), n = 3, n.i.: no inhibitory activity observed, read-out: COX-2 residual activity (%)
T1 sequence (P35354 18-604): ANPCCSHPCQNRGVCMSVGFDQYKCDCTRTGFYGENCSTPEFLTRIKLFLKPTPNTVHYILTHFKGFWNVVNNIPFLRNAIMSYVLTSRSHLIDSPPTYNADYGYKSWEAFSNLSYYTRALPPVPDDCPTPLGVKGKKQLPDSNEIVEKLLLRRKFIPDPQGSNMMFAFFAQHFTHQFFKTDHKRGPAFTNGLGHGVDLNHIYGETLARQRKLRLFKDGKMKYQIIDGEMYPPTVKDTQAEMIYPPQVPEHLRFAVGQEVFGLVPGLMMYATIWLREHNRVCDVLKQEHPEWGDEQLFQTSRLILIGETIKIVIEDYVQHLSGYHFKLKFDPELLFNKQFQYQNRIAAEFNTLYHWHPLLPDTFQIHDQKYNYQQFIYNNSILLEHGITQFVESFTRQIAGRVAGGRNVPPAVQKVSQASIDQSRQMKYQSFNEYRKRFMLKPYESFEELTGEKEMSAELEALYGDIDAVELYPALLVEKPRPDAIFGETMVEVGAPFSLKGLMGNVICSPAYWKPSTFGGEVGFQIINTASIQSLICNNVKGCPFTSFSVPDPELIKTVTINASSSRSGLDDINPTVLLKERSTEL
Procedure: Cell-free COXs activity assay
Isolated COX-1 (ovine) and COX-2 (human) were used for the evaluation of the activity of test compounds 3, 6, 7, and 9 on cyclooxygenases. COXs were diluted using Tris buffer (100 mM, pH = […]
8) plus 5 mM glutathione, 100 µM EDTA and 5 µM hemoglobin) to a final concentration of 50 U/mL for COX-1 and 20 U/mL for COX-2, and pre-incubated with test compounds 3, 6, 7, and 9 (10 µM) or vehicle (0.1% DMSO) over 5 min at rt. After 1 min at 37 °C, reactions were started after addition of arachidonic acid to a final concentration of 5 µM for COX-1 and 2 µM for COX-2. After 5 min at 37 °C, 1 mL of ice-cold methanol was added for stopping the reactions on ice. Then, PGB 1 as internal standard and 530 µl PBS plus HCl were added, and solid-phase extraction was performed as reported before.4-6, 17-19 COXs product formation (12-HHT) was determined using RP-HPLC. 4-6, 17-19 Indomethacin (10 µM) and celecoxib (5 µM) were used as reference drugs.
Expression, purification and activity assay of human recombinant sEH
Human recombinant sEH was expressed in Sf9 cells and was infected using a baculovirus, provided by Dr. B. Hammock, University of California, Davis, CA. After 72 hours, cells were pelleted and sonicated (3 × 10 sec) at 4 °C in lysis buffer (50 mM NaHPO 4, pH = 8, 300 mM NaCl, 10% glycerol, 1 mM EDTA, 1 mM phenylmethanesulfonyl fluoride, 10 µg/mL of leupeptin, and 60 µg/mL of soybean trypsin inhibitor). Lysates were centrifuged over 60 min at 4 °C (100,000 × g), and supernatants were collected and submitted to a benzylthio-sepharose-affinity chromatography for sEH purification by elution with 4-fluorochalcone oxide in PBS plus 1 mM DTT and 1 mM EDTA.720 […]
DMSO) for 15 min at rt. 50 µM 3-phenyl-cyano(6-methoxy-2-naphthalenyl)methyl ester-2-oxiraneacetic acid (PHOME), a non-fluorescent compound, was added for starting the reaction.
PHOME is enzymatically converted into a fluorescent compound, 6-methoxy-naphtaldehyde, detectable by using a spectrofluorometer setting λ em = 465 nm, λ ex = 330 nm. After 60 min, ZnSO 4

[1] = test system: 5-LO product formation in intact neutrophils (PMNL); experiment: Determination of 5-LO products in neutrophils; format: cell-based; settings: Homo sapiens
Procedure: Figure S3. Concentration-response curves for inhibition of 5-LO product formation in neutrophils.
Cells were pre-incubated with compounds 3, 6, 7 and 9 or 0.1% DMSO over 10 min at 37 °C, and then stimuli were added. On the left (A,C, E, G), cells were stimulated with 2.5 µM Ca 2+-ionophore A23187 over 10 min; on the right (B, D, F, H), cells were stimulated with 2.5 µM Ca 2+-ionophore A23187 plus 20 µM arachidonic acid over 10 min. Data are expressed as percentage of uninhibited control (100%), means, S.E.M., n = 3. […]
Determination of 5-LO products in neutrophils
Freshly isolated neutrophils were resuspended in PBS buffer containing 0.1% glucose and 1 mM CaCl2 to a final cell density of 5 × 10 6. Cells were pre-incubated with compounds 3, 6, 7, 9 or DMSO vehicle (0.1%) at 37 °C for 10 min. Then, 2.5 µM Ca 2+-ionophore A23187 (with or without supplementation of 20 µM of arachidonic acid) was added as stimulus, and cells were left at 37 °C for 10 min. 1 mL of ice-cold methanol was used to stop the reaction of 5-LO product formation on ice, and 530 µL of PBS plus HCl and PGB 1 (as internal standard) were added. Finally, cells were centrifuged (2000 x g) over 10 min at room temperature, and 5-LO products were extracted by solid-phase extraction, and they were quantified by RP-HPLC as described above. […]

[2] = 2.5 µM A23187, n = 3, read-out: 5-LO product formation on PMNL, IC50 value ± SEM, stimulus: A23187
[3] = 2.5 µM A23187 plus 20 μM arachidonic acid, n = 3, read-out: 5-LO product formation on PMNL, IC50 value ± SEM, stimulus: A23187 + AA

Row | Structure (SMILES) | remaining activity at 10 µM (COX-2) [%] | IC50 [1, 2] [µM] | IC50 [1, 3] [µM]
1 | Nc1ccccc1-c1ccc(-c2nnc(NC(=O)c3ccccc3Br)s2)cc1 [compound 7] | 194 | 4.2 ± 1.4 | 2.3 ± 0.8
2 | Nc1ccccc1-c1ccc(-c2nnc(NC(=O)c3c(Cl)ccnc3Cl)s2)cc1 [compound 9] | 72.7 | 2.1 ± 0.3 | 4.2 ± 0.3
3 | Cc1cc(C(=O)Nc2nnc(-c3ccc(-c4ccccc4N)cc3)s2)cc(Cl)n1 [compound 6] | 83.1 | 4.8 ± 1.9 | 6.9 ± 2.2
4 | O=C(Nc1nnc(-c2ccc(-c3cccc(O)c3)cc2)s1)c1ccccc1Br [compound 3] | 65.4 | 4.9 ± 0.5 | 5.2 ± 1.2

Reference: article PMC9841589, “Identification of 2-Aminoacyl-1,3,4-thiadiazoles as Prostaglandin E2 and Leukotriene Biosynthesis Inhibitors” (ACS Medicinal Chemistry Letters, 2022)
